Experimental findings from patent publication US20110112135A1, “Imidazo [1,2-A] Pyridine Compounds” (priority 2007, published 2011) are described below.

In general, EC50 refers to the concentration needed to bring the measured effect to its halfway point. A word on the IC50: it is the concentration that gives 50% inhibition.

In experiment [1] the test system is ABCA1 gene. Nature of the experiment: Quantitative analysis of ABCA1 gene regulation in THP-1 cells (real-time PCR). The experiment is classed as cell-based, human. The method, then: III. Quantitative Analysis of ABCA1 Gene Regulation in THP-1 Cells. The compounds of formula (I) effect on the regulation of the ABCA1 gene was evaluated using the following procedure. Materials and Methods Cell culture: The THP-1 monocytic cell line (ATCC #TIB-202) was obtained from American Type Culture Collection (Manassas, Va.) and cultured in RPMI 1640 medium (Gibco, Carlsbad, Calif.) containing 10% FBS, 2 mM L-glutamine, and 55 uM beta-Mercaptoethanol (BME). […] Louis, Mo.) for three days to induce differentiation into adherent macrophages. Differentiated THP-1 cells were treated with test compounds or ligands dissolved in DMSO (Sigma, D-8779) in culture medium lacking phorbal ester. […] Dose response effects were measured in duplicate, in the range of 0.001 to 30 micromolar concentrations and treated cells were incubated for an additional 18 hrs prior to RNA isolation. Unstimulated cells treated with vehicle were included as negative controls on each plate. […] L., J. Med. Chem. (2000), 45:1963-1966.). Results of antagonist analysis are expressed as % antagonism and IC50 (in μM). RNA isolation and quantitation: Total cellular RNA was isolated from treated cells cultured in 96-well plates using PrepStation 6100 (Applied Biosystems, Foster City, Calif.), according to the manufacturer's recommendations. RNA was resuspended in ribonuclease-free water and stored at -70° C. prior to analysis. RNA concentrations were quantitated with RiboGreen test procedure, #R-11490 (Molecular Probes, Eugene, Oreg.). Gene expression analysis: Gene-specific mRNA quantitation was performed by real-time PCR with the Perkin Elmer Corp. chemistry on an ABI Prism 7700 Sequence detection system (Applied Biosystems, Foster City, Calif.) according to the manufacturer's instructions. Samples (50-100 ng) of total RNA were assayed in duplicate or triplicate in 50 ul reactions using one-step RT-PCR and the standard curve method to estimate specific mRNA concentrations. Sequences of gene-specific primer and probe sets were designed with Primer Express Software (Applied Biosystems, Foster City, Calif.). […] Relative levels of ABCA1 mRNA are normalized using GAPDH mRNA or 18S rRNA probe/primer sets purchased commercially (Applied Biosystems, Foster City, Calif.). Statistics: Mean, standard deviation and statistical significance of duplicate evaluations of RNA samples were assessed using ANOVA, one-way analysis of variance using SAS analysis. Reagents: -GAPDH Probe and Primers-Taqman GAPDH Control Reagents 402869 or 4310884E 18S Ribosomal RNA-Taqman 18S Control Reagents 4308329 […] Qiagen Quantitect probe RT-PCR 204443.
Background: Quantitative PCR measures a nucleic acid by following its amplification.

In experiment [2] the target is T1, human LXRβ (Homo sapiens, UniProt P55055).
T1 construct: biotin (biotinylated); made in house; host or cells: E. coli (crude extract)
T1 sequence (P55055 1-460): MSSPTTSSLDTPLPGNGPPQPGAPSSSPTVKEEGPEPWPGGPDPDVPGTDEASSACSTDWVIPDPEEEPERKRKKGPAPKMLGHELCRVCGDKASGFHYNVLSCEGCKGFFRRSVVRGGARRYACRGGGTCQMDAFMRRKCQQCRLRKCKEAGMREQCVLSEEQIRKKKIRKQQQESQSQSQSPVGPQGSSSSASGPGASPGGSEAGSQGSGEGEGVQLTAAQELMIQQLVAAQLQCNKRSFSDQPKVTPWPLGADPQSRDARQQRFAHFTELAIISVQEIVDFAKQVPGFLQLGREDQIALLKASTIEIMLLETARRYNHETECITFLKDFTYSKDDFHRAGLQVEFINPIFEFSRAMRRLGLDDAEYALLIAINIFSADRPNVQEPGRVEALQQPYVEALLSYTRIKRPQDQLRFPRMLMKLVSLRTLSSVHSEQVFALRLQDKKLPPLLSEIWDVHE
Put plainly: Ligand-binding test procedure for human LXRβ (3H T0901317 tracer, flash plates). The following applies: biotinylated hLXRβ from E. coli extract; tracer 3H T0901317. The method, then: I. Ligand-Binding Test Procedure for Human LXRβ.
Receptor source: E. coli extract from cells expressing biotinylated hLXRβ. Extract was made in a similar buffer as above, but with 50 mM TRIS.
(§1) Washed streptavidin and coated flash plates with wash buffer. Diluted receptor extract to give Bmax ˜4000 cpm and add to the wells. Wrapped the plates in aluminum foil and stored them at +4° C. over night.
(§2) Made a dilution series in DMSO of the test ligands. Made a 5 nM solution of the radioactive tracer in buffer. Mixed 250 μl diluted tracer with 5 μl of the test ligand from each concentration of the dilution series. Washed the receptor-coated flash plates. Added 200 μl per well of the ligand/radiolabel mixture to the receptor-coated flash plates. Wrapped the plates in aluminum foil and incubate at +4° C. over night.
(§3) Aspirated wells, and wash the flashed plates. Sealed the plate. Measured the remaining radioactivity in the plate.

For experiment [3], the target named is T2, human LXRα (Homo sapiens, UniProt Q13133).
T2 construct: biotin (biotinylated); made in house; host or cells: E. coli (crude extract)
T2 sequence (Q13133 1-447): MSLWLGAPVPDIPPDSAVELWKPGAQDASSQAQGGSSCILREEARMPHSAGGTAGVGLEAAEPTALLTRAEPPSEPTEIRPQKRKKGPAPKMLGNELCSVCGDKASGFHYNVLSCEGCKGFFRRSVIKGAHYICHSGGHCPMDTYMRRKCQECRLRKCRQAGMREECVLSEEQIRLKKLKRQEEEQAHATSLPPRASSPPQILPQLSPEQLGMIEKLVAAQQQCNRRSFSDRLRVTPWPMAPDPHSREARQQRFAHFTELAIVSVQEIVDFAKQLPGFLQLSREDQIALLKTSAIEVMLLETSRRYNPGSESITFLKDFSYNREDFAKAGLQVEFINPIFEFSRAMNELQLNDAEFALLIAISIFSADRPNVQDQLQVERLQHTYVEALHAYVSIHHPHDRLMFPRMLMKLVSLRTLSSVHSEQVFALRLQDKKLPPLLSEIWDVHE
Nature of the experiment: Ligand-binding test procedure for human LXRα (3H T0901317 tracer, flash plates). The following applies: biotinylated hLXRα from E. coli extract; tracer 3H T0901317. On the procedure: II. Ligand-Binding Test Procedure for Human LXRα.
Receptor source: E. coli extract from cells expressing biotinylated hLXRα. Extract was made in a similar buffer as above, but with 50 mM TRIS.
as §1, §2, §3

Turning to `CS(=O)(=O)c1cccc(Oc2cccc(-c3c(CN4CCSC4)nc4c(C(F)(F)F)cccn34)c2)c1` [Example 133, 3-{3-[3-(methylsulfonyl)phenoxy]phenyl}-2-(1,3-thiazolidin-3-ylmethyl)-8-(trifluoromethyl)imidazo[1,2-a]pyridine], the Emax in experiment [1] (Gene regulation by LXR (Human), differentiated THP-1 cells, 18 hrs, LXR agonist reference at 1.0 uM as positive control, read-out: Agonism ABCA1) came to 98%. Moreover, in experiment [1] (Homo sapiens, THP-1, 18 h, read-out: EC50 ABCA1), the EC50 stood at 0.01 µM.
For the molecule `CNCCCS(=O)(=O)c1cccc(Oc2cccc(-c3c(C(C)C)nc4c(C(F)(F)F)cccn34)c2)c1` [Example 62, 3-[(3-{3-[2-isopropyl-8-(trifluoromethyl)imidazo[1,2-a]pyridin-3-yl]phenoxy}phenyl)sulfonyl]-N-methylpropan-1-amine], the IC50 in experiment [2] is 0.0915 µM; in experiment [3], 2.81 µM.
In the same order, the values of `CCc1nc2c(C(F)(F)F)cccn2c1-c1ccc(Cc2cccc(S(C)(=O)=O)c2)cc1` [Example 101, 2-ethyl-3-{4-[3-(methylsulfonyl)benzyl]phenyl}-8-(trifluoromethyl)imidazo[1,2-a]pyridine] are greater than 1 µM and greater than 1 µM.
With `CCc1nc2c(C#N)cccn2c1-c1cccc(OCc2ccc(S(C)(=O)=O)cc2)c1` [Example 58, 2-ethyl-3-(3-{[4-(methylsulfonyl)benzyl]oxy}phenyl)imidazo[1,2-a]pyridine-8-carbonitrile], the 50% inhibitory concentration (IC50) in experiment [2] and in experiment [3] was greater than 1 µM in each case.
For `CC(C)c1nc2c(C(F)(F)F)cccn2c1-c1ccc(-c2ccc(S(C)(=O)=O)cc2)cc1` [Example 94, 2-isopropyl-3-(4′-(methylsulfonyl)biphenyl-4-yl)-8-(trifluoromethyl)imidazo[1,2-a]pyridine], the IC50 in experiment [2] and in experiment [3] was greater than 1 µM throughout.
Take `CC(C)c1nc2c(Cl)cccn2c1-c1ccc(Oc2cccc(S(C)(=O)=O)c2)cc1` [Example 121, 8-chloro-2-(1-methylethyl)-3-{4-[3-(methylsulfonyl)phenoxy]phenyl}imidazo[1,2-a]pyridine]: the IC50 was 0.46 µM in experiment [2] and greater than 1 µM in experiment [3].
Taken in the same sequence, the figures for `CC(C)c1nc2c(C(F)(F)F)cccn2c1-c1cccc(Oc2cccc(S(=O)(=O)C(C)C)c2)c1` [Example 27, 2-isopropyl-3-(3-(3-(isopropylsulfonyl)phenoxy)phenyl)-8-(trifluoromethyl)imidazo[1,2-a]pyridine] were 0.008 µM and 0.144 µM.
Taken in the same sequence, the figures for `CC(C)c1nc2c(C(F)(F)F)cccn2c1-c1cccc(Oc2cccc(S(C)(=O)=O)c2)n1` [Example 89, 2-isopropyl-3-{6-[3-(methylsulfonyl)phenoxy]pyridin-2-yl}-8-(trifluoromethyl)imidazo[1,2-a]pyridine] were greater than 1 µM and greater than 1 µM.
For the molecule `CN(C)Cc1nc2c(C(F)(F)F)cccn2c1-c1cccc(Oc2cccc(S(C)(=O)=O)c2)c1` [Example 137, N,N-dimethyl-1-[3-{3-[3-(methylsulfonyl)phenoxy]phenyl}-8-(trifluoromethyl)imidazo[1,2-a]pyridin-2-yl]methanamine], the IC50 in experiment [2] and in experiment [3] was greater than 1 µM throughout.
Take `CCc1nc2c(C(F)(F)F)cccn2c1-c1ccc(COc2cccc(S(C)(=O)=O)c2)cc1` [Example 111, 2-ethyl-3-(4-{[3-(methylsulfonyl)phenoxy]methyl}phenyl)-8-(trifluoromethyl)imidazo[1,2-a]pyridine]: the IC50 in experiment [2] and in experiment [3] was greater than 1 µM in each case.
For the molecule `CCc1nc2c(C(F)(F)F)cccn2c1-c1ccc(-c2ccc(S(=O)(=O)C(C)C)cc2)cc1` [Example 92, 2-ethyl-3-(4′-(isopropylsulfonyl)biphenyl-4-yl)-8-(trifluoromethyl)imidazo[1,2-a]pyridine], the half-inhibitory concentration (IC50) was 1.59 µM in experiment [2] and greater than 1 µM in experiment [3].
As for `CC(C)(C)c1nc2c(C#N)cccn2c1-c1cccc(Oc2cccc(S(=O)(=O)CCCO)c2)c1` [Example 81, 2-tert-butyl-3-(3-{3-[(3-hydroxypropyl)sulfonyl]phenoxy}phenyl)imidazo[1,2-a]pyridine-8-carbonitrile], the IC50 in experiment [2] is 0.152 µM; in experiment [3], 2.39 µM.
Taken in the same sequence, the figures for `Cc1nc2c(C(F)(F)F)cccn2c1-c1cccc(Oc2cccc(S(=O)(=O)CCC(C)(C)O)c2)c1` [Example 14, 2-methyl-4-[(3-{3-[2-methyl-8-(trifluoromethyl)imidazo[1,2-a]pyridin-3-yl]phenoxy}phenyl)sulfonyl]butan-2-ol] were 0.525 µM and 6.25 µM.
As to `CCc1nc2c(Cl)cccn2c1-c1cccc(Oc2cccc(S(=O)(=O)N(Cc3ccc(OC)cc3)Cc3ccc(OC)cc3)c2)c1` [Example 42, 3-[3-(8-chloro-2-ethylimidazo[1,2-a]pyridin-3-yl)phenoxy]-N,N-bis(4-methoxybenzyl)benzenesulfonamide], the 50% inhibitory concentration (IC50) was determined as 0.409 µM in experiment [2] and 0.92 µM in experiment [3].
In the same order, the values of `CCc1nc2c(C#N)cccn2c1-c1cccc(OCc2cccc(S(C)(=O)=O)c2)c1` [Example 54, 2-ethyl-3-(3-{[3-(methylsulfonyl)benzyl]oxy}phenyl)imidazo[1,2-a]pyridine-8-carbonitrile] are 3.06 µM and 41.1 µM.
In the same order, the values of `CCc1nc2c(Cl)cccn2c1-c1ccc(Oc2cccc(S(C)(=O)=O)c2)cc1` [Example 103, 8-chloro-2-ethyl-3-{4-[3-(methylsulfonyl)phenoxy]phenyl}imidazo[1,2-a]pyridine] are 0.417 µM and greater than 1 µM.
Taken in the same sequence, the figures for `CC(C)c1nc2c(C#N)cccn2c1-c1cccc(Oc2cccc(CS(C)(=O)=O)c2)c1` [Example 115, 2-isopropyl-3-(3-{3-[(methylsulfonyl)methyl]phenoxy}phenyl)imidazo[1,2-a]pyridine-8-carbonitrile] were greater than 1 µM and greater than 1 µM.
